Data published in publication PMC7139703, “Thiopurine Derivative-Induced Fpg/Nei DNA Glycosylase Inhibition: Structural, Dynamic and Functional Insights” (International Journal of Molecular Sciences, 2020).
Read-outs that look alike come from different tables or passages of the source.

Legend:
[1] = target: T1, LlFpg (Lactococcus lactis subsp. cremoris, UniProt P42371); test: LlFpg 8-oxoG-DNA glycosylase/AP lyase activity assay (Urea-PAGE radioassay); format: biochemical; conditions: for inhibition of Fpg catalytic activity by reduced forms: 400 µM, homogeneous reduced form
T1 construct: made in house; host or cells: E. coli BH540 (fpg defective)
Protocol: Figure 1 Effect of 2-thioxanthine (2TX)-derivatives on Fpg activity. A total of 20 nM of 5′-[^32P]-8-oxoG-containing 24-bp DNA duplex (labeled on the damaged strand) was incubated with 2 nM of LlFpg alone (dimethyl sulfoxide (DMSO) control) or with the indicated 2TX and 2TX-derivatives (TXn) concentrations, as described in the “Materials and Methods” section. (a) Screening of TXn for Fpg inhibition. Averages and standard deviations were obtained from at least three independent experiments. Mono- and di-thiolated compounds are highlighted in red and blue, respectively. (b) Dose-response curves for best inhibitors. Each data point represents the mean value obtained from at least three independent measurements.
(§1) Fpg, hNeil1 and mvNei1 are bifunctional DNA glycosylases associated with concerted DNA glycosylase activity (cleavage of the N-glycosidic bond between the base lesion and the C1′ of the deoxyribose) and AP lyase activity that comprises the successive cleavage of the phosphodiester bonds at the 3′ and 5′ of the resulting abasic (AP) site, respectively (β, δ-elimination). Thus, AP sites that result from the excision of the damaged base are quantitatively converted into one nucleoside gap by these enzymes. The DNA glycosylase/AP lyase activity of each enzyme was measured by incubating 20 nM of 24-mer DNA duplexes ([OG:C] and [DHU:G] for Fpg and hNeil1/mvNei1, respectively) 5′-labeling on the damaged strand (see above) with 2 nM of Fpg, or mvNei1 for 15 min or, with 20 nM of hNeil1 for 30 min at 37 °C in 10 mM Tris-HCl, pH 7.6, 150 mM NaCl, 1 mM EDTA, 0.1 mg/mL BSA and 8% DMSO. The reaction was stopped by the addition of 1 volume of formamide loading buffer (96% formamide, 20 mM Tris/HCl pH 8.0 and 2 mM Na2EDTA), heated at 80 °C for 2 min and then analyzed by 20% Urea-PAGE, as previously described. […] Under these conditions, only 50% of the substrate is converted to the cleavage product (limiting enzyme concentration conditions). For an initial evaluation of the inhibitory effect, 40 µM of 2TX/TXn was used. The thio-compound was added to the reaction mixture before the final addition of the enzyme (competition condition). For the best identified inhibitors, a dose-response curve was generated and IC50^A determined (Figure 1 and Table 1).

[2] = target: T2, LlFpg/DNA complex C1 (Lactococcus lactis subsp. cremoris, UniProt P42371); test: EMSA, Fpg DNA binding to 14-mer [THF:C] duplex, complex C1 (lesion recognition complex, Fpg/DNA 1/1); conditions: homogeneous reduced or disulfide form in 50 mM sodium phosphate; 14-mer [THF:C]; read-out: IC50^B (Fpg DNA binding), homogeneous redox forms
T2 construct: made in house; host or cells: E. coli BH540 (fpg defective)
Text: (§2) To complement this study, we examined the effect of TXn on the binding of Fpg to a short DNA duplex containing a tetrahydrofuran (THF), a non-cleavable AP site analog. The enzyme specifically recognizes THF and forms a stable abortive complex with DNA [18, 34, 35, 36]. […] A representative titration experiment (with and without TCEP) of the 14-mer [THF:C] Fpg formed two stable complexes with this short DNA probe that were easily observed by EMSA: a high-affinity complex C1 corresponding to the lesion recognition complex (LRC), with nanomolar affinity, and a complex C2 only observed at higher Fpg concentrations. C2 results in C1 titration by a second Fpg molecule. This finding illustrates that the crystal structure of Fpg bound to 8-oxoG-carbanucleotide-containing DNA [38] (Figure S5). The stability of each preformed complex was then examined by EMSA in the presence of 2TX or TXn. […] The enzyme inactivation mediated by 2TX through ZnF oxidation that directly affects the DNA binding properties of the enzyme is also in agreement with this last observation.
Figure 2 The effect of 2TX and TXn on Fpg DNA binding to abasic site-containing DNA. A 14-mer DNA duplex containing a tetrahydrofurane (THF) site as an abasic site analog was incubated with a limiting Fpg concentration (0.25 nM) with and without increasing concentrations of TXn. Incubation mixtures were then analyzed by electrophoretic mobility shift assay (EMSA), as described in the ‘Materials and Methods’. (a) Titration experiments with (+) and without (-) 2 mM tris(2-carboxyethyl)phosphine hydrochloride (TCEP) C1 and C2 are for the [1/1] and [2/1] Fpg/DNA complexes, respectively (see detailed in the text). (b) Fpg DNA binding concentration-dependence for 2TX and the more efficient TXn inhibitors. A representative EMSA autoradiography with 0.25 nM of Fpg alone (lane no) and 0.5, 2.5, 5, 10, 20, 40, 50, 250, 1000 µM is shown in the upper panel. IC50app^B corresponds to the TXn amount needed to halve the C1 complex formation and was extracted from the dose-response curves (lower panel; Table 1).
(§3) The DNA binding activity was measured using EMSA [37]. Briefly, 0.1 nM of the 5′-labeled 14-mer [THF:C] (see above) was incubated with the enzyme at 4 °C for 30 min in 25 mM HEPES/NaOH (pH 7.5), 150 mM NaCl, 5% glycerol, 0.1 mg/mL BSA and 8% DMSO. The incubation mixture was then loaded onto a native 10% polyacrylamide gel (Acryl/Bis 19/1) and electrophoresed at 25 V/cm for 90 min at 4 °C. After electrophoresis, the gels were dried and exposed overnight for autoradiography using a Typhoon imager and quantified with ImageQuant software. To evaluate the inhibitor effect of 2TX/TXn on the DNA binding activity of each Fpg/Nei enzyme, we first determined the experimental conditions required to bind 50% of the DNA probes without an inhibitor in the presence of 8% DMSO (limiting enzyme concentration). Under these conditions, we obtained the half-maximal DNA binding 0.25, 7 and 5 nM of Fpg, hNeil1 and mvNei1. We used this limited enzyme concentrations to evaluate the inhibitor effect of 2TX/TXn on the enzyme DNA binding activity. This effect was determined by the addition of the thio-compound in the pre-equilibrium mixture of the enzyme and DNA probe (30 min) and incubated for an additional 30 min at 4 °C. For the best inhibitors of Fpg, a dose-response curve was established from at least three independent experiments and the IC50 was determined (IC50^B, Table 1).

[3] = target: T3, mvNei1 (Acanthamoeba polyphaga mimivirus, UniProt Q5UQ00); test: mvNei1 DNA glycosylase/AP lyase activity assay on DHU:G 24-mer duplex; format: biochemical; conditions: for inhibition of mvNei1 by homogeneous disulfide forms: Figure 6d
T3 construct: 6His (C); made in house; host or cells: E. coli Rosetta2 (DE3)
Protocol: (§4) Figure 4 Comparative analysis of the effect of 2TX and TXn on Fpg/Nei DNA glycosylases. Enzyme activities were measured as described in the Figure 1 legend using […] of a 5′-[^32P]-24-mer DNA duplex containing either an 8-oxoG opposite C for LlFpg or a […] (DHU) opposite G for hNeil1 and mvNei1. The DNA probe was incubated with the indicated protein concentration and 0.2 mM TXn compounds in the presence or absence of 1 mM dithiothreitol (DTT) and TCEP (a representative experiment is illustrated by the upper histograms). The DNA probe for EMSA was 0.1 nM of 5′-[^32P]-24-mer DNA duplex containing THF with LlFpg and mvNei1 (bottom panels: gel autoradiography) with the indicated conditions and as described in ‘Materials and Methods’.
as §1

[4] = target: T4, hNeil1 (Homo sapiens, UniProt Q96FI4); test: hNeil1 DNA glycosylase/AP lyase activity assay on DHU:G 24-mer duplex; format: biochemical; parameters: Overproduction was performed as described above for full length hNeil1; 6His (C); made in house; host or cells: E. coli Rosetta2 (DE3); conditions: for inhibition of hNeil1 by homogeneous disulfide forms: Figure 6d
Protocol: as §4, §1
Target sequence in this assay (Q96FI4 whole entry): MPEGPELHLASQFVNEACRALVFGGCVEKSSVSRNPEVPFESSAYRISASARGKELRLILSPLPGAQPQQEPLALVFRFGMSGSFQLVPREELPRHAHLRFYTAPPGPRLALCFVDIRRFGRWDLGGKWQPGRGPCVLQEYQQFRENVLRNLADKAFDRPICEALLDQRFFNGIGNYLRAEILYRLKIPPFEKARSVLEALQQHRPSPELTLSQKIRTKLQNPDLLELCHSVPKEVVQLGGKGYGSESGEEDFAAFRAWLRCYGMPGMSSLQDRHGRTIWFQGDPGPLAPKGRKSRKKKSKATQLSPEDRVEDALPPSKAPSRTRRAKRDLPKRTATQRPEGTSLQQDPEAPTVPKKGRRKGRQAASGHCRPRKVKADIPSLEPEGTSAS

[5] = target: T5, LlFpg/DNA complex C2 (Lactococcus lactis subsp. cremoris, UniProt P42371); test: EMSA, Fpg DNA binding to 14-mer [THF:C] duplex, non-specific complex C2 (Fpg/DNA 2/1); conditions: 2 mM TCEP, 6.7-fold molar excess over compound; Figure 3
T5 construct: made in house; host or cells: E. coli BH540 (fpg defective)
T5 sequence (P42371 2-273 limits assumed): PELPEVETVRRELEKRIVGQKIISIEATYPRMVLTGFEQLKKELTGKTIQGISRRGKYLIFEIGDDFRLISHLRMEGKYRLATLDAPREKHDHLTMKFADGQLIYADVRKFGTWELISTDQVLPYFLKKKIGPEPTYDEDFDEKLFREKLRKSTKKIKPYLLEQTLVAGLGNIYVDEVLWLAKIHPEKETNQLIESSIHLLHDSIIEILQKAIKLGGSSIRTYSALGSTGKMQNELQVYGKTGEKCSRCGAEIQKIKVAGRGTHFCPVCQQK
Text: as §2
The inhibitor concentrations that induced the loss of the half-maximal binding (IC50app^B) were determined from these curves and are reported in Table 1. IC50app^B compared well with IC50app^A. As observed above for the enzyme activity, strong reducers, such as TCEP, abolished the negative effects of 2TX and TXn on Fpg/DNA complex stability and formation. These findings again indicate that inhibition by thio-compounds essentially relies on the oxidation of the Fpg ZnF (for an example, see experiment with TX19, Figure S4). […] This troubling and unexpected observation led us to evaluate this effect with the TXn small library compounds. To prevent a side effect due to a possible partial reduction by TCEP, we performed EMSA in the presence of a 6.7-fold molar excess of TCEP with respect to 2TX and TXn after complex formation (Figure 3).
Figure 3 Impact of TXn on the non-specific Fpg/DNA complex C2 stability in highly reducing conditions. EMSA was performed as described in the ‘Material & Methods’, except TCEP was added at a 2 mM final concentration in each binding assay. (a) Representative experiment at 0.3 mM 2TX and more efficient TXn; (b) Dose-response with the best TXn. Upper panel: Representative EMSA experiment with TX10. Lower panel: Dose-response curves with the indicated TXn.
as §3, with “1). […]” for “1).”
Rieux et al. Thiopurine derivative-induced Fpg/Nei DNA glycosylase inhibition:
structural, dynamic and functional insights
Figure S6. […]

[6] = target: T4, hNeil1; test: EMSA, hNeil1 DNA binding to THF-containing DNA duplex; conditions: Figure 4
Target sequence in this assay (Q96FI4 2-290 limits assumed): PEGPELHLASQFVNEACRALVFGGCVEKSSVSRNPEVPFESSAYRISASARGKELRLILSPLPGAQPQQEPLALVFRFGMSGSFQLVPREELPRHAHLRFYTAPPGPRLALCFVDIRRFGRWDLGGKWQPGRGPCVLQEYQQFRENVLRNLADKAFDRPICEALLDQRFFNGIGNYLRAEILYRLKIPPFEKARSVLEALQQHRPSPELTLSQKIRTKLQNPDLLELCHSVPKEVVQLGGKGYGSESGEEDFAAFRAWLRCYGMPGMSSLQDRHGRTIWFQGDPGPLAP

[7] = target: T3, mvNei1; test: EMSA, mvNei1 DNA binding to THF-containing DNA duplex; conditions: Figure 4
Protocol: as §4, with “The DNA probe for EMSA was 0.1 nM of 5′-[^32P]-24-mer DNA duplex containing THF with LlFpg and mvNei1 (bottom panels: gel autoradiography) with the indicated conditions and as described in ‘Materials and Methods’.” left out
The DNA binding activity was measured using EMSA [37]. […] After electrophoresis, the gels were dried and exposed overnight for autoradiography using a Typhoon imager and quantified with ImageQuant software. To evaluate the inhibitor effect of 2TX/TXn on the DNA binding activity of each Fpg/Nei enzyme, we first determined the experimental conditions required to bind 50% of the DNA probes without an inhibitor in the presence of 8% DMSO (limiting enzyme concentration). […] This effect was determined by the addition of the thio-compound in the pre-equilibrium mixture of the enzyme and DNA probe (30 min) and incubated for an additional 30 min at 4 °C. For the best inhibitors of Fpg, a dose-response curve was established from at least three independent experiments and the IC50 was determined (IC50^B, Table 1).

[8] = homogeneous reduced or disulfide form dissolved in 50 mM sodium phosphate, no DMSO stock, read-out: IC50^A (Fpg catalysis), homogeneous redox forms
[9] = 1 mM TCEP (DTT to a lesser extent), Figure 4

T3 sequence (Q5UQ00 whole entry): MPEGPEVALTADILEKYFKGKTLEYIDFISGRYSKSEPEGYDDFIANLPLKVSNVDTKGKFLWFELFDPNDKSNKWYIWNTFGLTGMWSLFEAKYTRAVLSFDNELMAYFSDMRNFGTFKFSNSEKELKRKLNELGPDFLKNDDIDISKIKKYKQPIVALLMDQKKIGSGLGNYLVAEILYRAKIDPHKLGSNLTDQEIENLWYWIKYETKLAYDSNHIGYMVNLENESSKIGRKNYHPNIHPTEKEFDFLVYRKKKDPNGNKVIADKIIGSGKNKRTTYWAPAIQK

O=c1[nH]c(SSc2nc3[nH]cnc3c(=O)[nH]2)nc2[nH]cnc12 [Compound 2TXOx]
IC50 [1, 8]: 5.5 µM
IC50 [2]: 34 ± 2 µM
inhibition of mvNei1 by homogeneous disulfide forms [3]: neither 2TXOx nor TX14Ox inhibited
inhibition of hNeil1 by homogeneous disulfide forms [4]: neither 2TXOx nor TX14Ox inhibited

O=c1[nH]c(=S)[nH]c2[nH]cnc12 [Compound 2TXRed, reference compound]
inhibition of Fpg catalytic activity by reduced forms [1]: did not inhibit the enzyme
IC50 [1, 8]: > 1000 µM
IC50 [2]: > 1000 µM

Cc1nc(S)c2[nH]cnc2n1 [TX4]
effect on Fpg 8-oxoG-DNA glycosylase/AP lyase activity (screening) ([1]; 40 µM compound, Figure 1a): drastically decreased the inhibitory effect

COc1nc(C(F)(F)F)nc2[nH]cnc12 [TX10]
destabilization of complex C2 in highly reducing conditions [5]: among the best C2 destabilizers

CNc1nc(C(F)(F)F)nc2[nH]cnc12 [TX11]
destabilization of complex C2 in highly reducing conditions [5]: among the best C2 destabilizers

O=c1[nH]c2nc(SSc3nc4[nH]c(=O)[nH]c4c(=O)[nH]3)[nH]c(=O)c2[nH]1 [TX14Ox]
IC50 [1, 8]: 2.7 µM
IC50 [2]: 26 ± 1 µM
inhibition of mvNei1 by homogeneous disulfide forms [3]: neither 2TXOx nor TX14Ox inhibited
inhibition of hNeil1 by homogeneous disulfide forms [4]: neither 2TXOx nor TX14Ox inhibited

O=c1[nH]c2[nH]c(=S)[nH]c(=O)c2[nH]1 [TX14Red]
inhibition of Fpg catalytic activity by reduced forms [1]: did not inhibit the enzyme
IC50 [1, 8]: > 1000 µM
IC50 [2]: > 1000 µM

O=c1[nH]c2[nH]c(=S)[nH]c(=S)c2[nH]1 [TX16]
effect on hNeil1 DNA binding activity [6]: apparent inhibitory effects
IC50 ([1]; catalytic activity at 37 °C, compound stock (redox mixture) in DMSO, 20 nM 8-oxoG:C 24-mer, 2 nM LlFpg, read-out: IC50app^A (Fpg/Nei enzyme catalysis) LlFpg): 41 ± 7 µM
effect on mvNei1 DNA binding activity [7]: apparent inhibitory effects
effect on mvNei1 catalytic activity ([3]; 0.2 mM compound, Figure 4): apparent inhibitory effects
inhibition of mvNei1 DNA binding and catalytic activities in the presence of TCEP [3, 9]: suppressed
IC50 ([3]; catalytic activity at 37 °C, compound stock in DMSO, DHU:G 24-mer, read-out: IC50app^A (Fpg/Nei enzyme catalysis) mvNEI1): 14 ± 1 µM
effect on hNeil1 catalytic activity ([4]; 0.2 mM compound, Figure 4): apparent inhibitory effects
inhibition of hNeil1 DNA binding and catalytic activities in the presence of TCEP [4, 9]: suppressed
IC50 ([4]; catalytic activity at 37 °C, compound stock in DMSO, DHU:G 24-mer, read-out: IC50app^A (Fpg/Nei enzyme catalysis) hNEIL1): 21 ± 1 µM
